System: not given
Assay: not given
Settings: not given

| melting point | Compound |
| --- | --- |
| 138 to 138.3 °C | CCNC(=O)C(=O)[C@H](Cc1ccccc1)NC(=O)[C@H](CC(C)C)NC(=O)OCCOC [Compound 1, ((1S)-1-((((1S)-1-Benzyl-2,3-dioxo-3-(ethylamino)propyl)amino)carbonyl)-3-methylbutyl) carbamic acid 2-methoxyethyl ester] |
| 158.9 to 160.7 °C | CCNC(=O)C(=O)[C@H](Cc1ccccc1)NC(=O)[C@H](CC(C)C)NC(=O)O[C@H]1CCOC1 [Compound 2, ((1S)-1-((((1S)-1-Benzyl-2,3-dioxo-3-(ethylamino)propyl)amino)carbonyl)-3-methylbutyl)carbamic acid (3S)-tetrahydrofuran-3-yl ester] |
| 169.2 to 170.5 °C | CC(C)C[C@H](NC(=O)O[C@H]1CCOC1)C(=O)N[C@@H](Cc1ccccc1)C(=O)C(=O)NC1CC1 [Compound 5, ((1S)-1-((((1S)-1-Benzyl-3-(cyclopropylamino)-2,3-dioxopropyl)amino)carbonyl)-3-methylbutyl)carbamic acid (3S)-tetrahydrofuran-3-yl ester] |
| 108.8 to 109.9 °C | CCCNC(=O)C(=O)[C@H](Cc1ccccc1)NC(=O)[C@H](CC(C)C)NC(=O)OCCOC [Compound 7, ((1S)-1-((((1S)-1-Benzyl-2,3-dioxo-3-(propylamino)propyl)amino)carbonyl)-3-methylbutyl) carbamic acid 2-methoxyethyl ester] |
| 152.5 to 153.9 °C | COCCOC(=O)N[C@@H](CC(C)C)C(=O)N[C@@H](Cc1ccccc1)C(=O)C(=O)NCC(F)(F)F [Compound 10, ((1S)-1-((((1S)-1-Benzyl-2,3-dioxo-3-(2,2,2-trifluoroethylamino)propyl)amino)carbonyl)-3-methylbutyl) carbamic acid 2-methoxyethyl ester] |
| 141.9 to 143.5 °C | COCCOC(=O)N[C@@H](CC(C)C)C(=O)N[C@@H](Cc1ccccc1)C(=O)C(=O)NC1Cc2ccccc2C1 [Compound 11, ((1S)-1-((((1S)-1-Benzyl-2,3-dioxo-3-(2-indanylamino)propyl)amino)carbonyl)-3-methylbutyl)carbamic acid 2-methoxyethyl ester] |
| 119.1 to 120.4 °C | CCNC(=O)C(=O)[C@H](CCc1ccccc1)NC(=O)[C@H](CC(C)C)NC(=O)OCCOC [Compound 13, ((1S)-1-((((1S)-2,3-Dioxo-3-ethylamino-1-(phenylethyl)propyl)amino)carbonyl)-3-methylbutyl)carbamic acid 2-methoxyethyl ester] |
| 111.9 to 114.5 °C | CCNC(=O)C(=O)[C@H](CCc1ccccc1)NC(=O)[C@H](CC(C)C)NC(=O)O[C@H]1CCOC1 [Compound 14, ((1S)-1-((((1S)-2,3-Dioxo-3-ethylamino-1-(phenylethyl)propyl)amino)carbonyl)-3-methylbutyl)carbamic acid (3S)-tetrahydrofuran-3-yl ester] |
| 99.7 to 100.5 °C | COCCOC(=O)N[C@@H](CC(C)C)C(=O)N[C@@H](CC(C)C)C(=O)C(=O)NCCOc1ccccc1 [Compound 21, ((1S)-1-((((1S)-2,3-Dioxo-1-(2-methylpropyl)-3-(2-phenoxyethyl)aminopropyl)amino)carbonyl)-3-methylbutyl) carbamic acid 2-methoxyethyl ester] |

Second part, the molecule before the results:

| Compound | melting point |
| --- | --- |
| CCNC(=O)C(=O)[C@H](Cc1ccccc1)NC(=O)[C@H](CC(C)C)NC(=O)OC1CCOCC1 [Compound 3, ((1S)-1-((((1S)-1-Benzyl-2,3-dioxo-3-(ethylamino)propyl)amino)carbonyl)-3-methylbutyl)carbamic acid tetrahydro-4H-pyran-4-yl ester] | 140 to 141.8 °C |
| COCCOC(=O)N[C@@H](CC(C)C)C(=O)N[C@@H](Cc1ccccc1)C(=O)C(=O)NC1CC1 [Compound 4, ((1S)-1-((((1S)-1-Benzyl-2,3-dioxo-3-(cyclopropylamino)propyl)amino)carbonyl)-3-methylbutyl)carbamic acid 2-methoxyethyl ester] | 112.4 to 113.5 °C |
| CC(C)C[C@H](NC(=O)OC1CCOCC1)C(=O)N[C@@H](Cc1ccccc1)C(=O)C(=O)NC1CC1 [Compound 6, ((1S)-1-((((1S)-1-Benzyl-3-cyclopropylamino-2,3-dioxopropyl)amino)carbonyl)-3-methylbutyl)carbamic acid tetrahydro-4H-pyran-4-yl ester] | 137 to 138.2 °C |
| COCCOC(=O)N[C@@H](CC(C)C)C(=O)N[C@@H](Cc1ccccc1)C(=O)C(=O)NC1CCC1 [Compound 8, ((1S)-1-((((1S)-1-Benzyl-2,3-dioxo-3-(cyclobutylamino)propyl)amino)carbonyl)-3-methylbutyl) carbamic acid 2-methoxyethyl ester] | 114.2 to 115.3 °C |
| CCCCNC(=O)C(=O)[C@H](Cc1ccccc1)NC(=O)[C@H](CC(C)C)NC(=O)OCCOC [Compound 9, ((1S)-1-((((1S)-1-Benzyl-3-butylamino-2,3-dioxopropyl)amino)carbonyl)-3-methylbutyl) carbamic acid 2-methoxyethyl ester] | 94 to 95.2 °C |
| COCCNC(=O)C(=O)[C@H](Cc1ccccc1)NC(=O)[C@H](CC(C)C)NC(=O)OCCOC [Compound 12, ((1S)-1-((((1S)-1-Benzyl-2,3-dioxo-3-(2-methoxyethylamino)propyl)amino)carbonyl)-3-methylbutyl) carbamic acid 2-methoxyethyl ester] | 127 to 127.9 °C |
| COCCOC(=O)N[C@@H](CC(C)C)C(=O)N[C@@H](CCc1ccccc1)C(=O)C(=O)NC1CC1 [Compound 15, ((1S)-1-((((1S)-2,3-Dioxo-3-cyclopropylamino-1-(phenylethyl)propyl)amino)carbonyl)-3-methylbutyl)carbamic acid 2-methoxyethyl ester] | 109.7 to 111.1 °C |
| CC(C)C[C@H](NC(=O)O[C@H]1CCOC1)C(=O)N[C@@H](CCc1ccccc1)C(=O)C(=O)NC1CC1 [Compound 16] | 115.8 to 116.2 °C |
| COCCOCCOCCOCCOC(=O)N[C@@H](CC(C)C)C(=O)N[C@@H](Cc1ccccc1)C(=O)C(=O)NC1CC1 [Compound 19, ((1S)-1-((((1S)-1-Benzyl-2,3-dioxo-3-(cyclopropylamino)propyl)amino)carbonyl)-3-methylbutyl)carbamic acid 11-methoxy-3,6,9-trioxaundecanyl ester] | 97.5 to 98.5 °C |
| COCCOCCOCCOCCOCCOC(=O)N[C@@H](CC(C)C)C(=O)N[C@@H](Cc1ccccc1)C(=O)C(=O)NC1CC1 [Compound 20, ((1S)-1-((((1S)-1-Benzyl-2,3-dioxo-3-(cyclopropylamino)propyl)amino)carbonyl)-3-methylbutyl)carbamic acid 14-methoxy-3,6,9,12-tetraoxatetradecanyl ester] | 98.5 to 99.9 °C |
| COCCOCCOC(=O)N[C@@H](CC(C)C)C(=O)N[C@@H](CC(C)C)C(=O)C(=O)NCCOc1ccccc1 [Compound 22, ((1S)-1-((((1S)-2,3-Dioxo-1-(2-methylpropyl)-3-(2-phenoxyethyl)aminopropyl)amino)carbonyl)-3-methylbutyl) carbamic acid 5-methoxy-3-oxapentyl ester] | 53.3 to 54.1 °C |

Molecular target: m-calpain (derived from porcine kidney) (Sus scrofa, UniProt P43367)
Sequence (P43367 whole entry): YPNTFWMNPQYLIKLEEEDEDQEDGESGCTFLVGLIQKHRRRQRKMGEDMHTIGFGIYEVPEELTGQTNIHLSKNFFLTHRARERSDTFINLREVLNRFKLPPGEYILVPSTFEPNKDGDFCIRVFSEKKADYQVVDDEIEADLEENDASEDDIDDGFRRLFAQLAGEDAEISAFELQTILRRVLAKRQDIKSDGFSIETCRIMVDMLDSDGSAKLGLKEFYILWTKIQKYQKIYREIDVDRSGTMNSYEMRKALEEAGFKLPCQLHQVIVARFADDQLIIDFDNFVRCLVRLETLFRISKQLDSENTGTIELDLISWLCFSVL
Sequence (P04574 whole entry, further chain): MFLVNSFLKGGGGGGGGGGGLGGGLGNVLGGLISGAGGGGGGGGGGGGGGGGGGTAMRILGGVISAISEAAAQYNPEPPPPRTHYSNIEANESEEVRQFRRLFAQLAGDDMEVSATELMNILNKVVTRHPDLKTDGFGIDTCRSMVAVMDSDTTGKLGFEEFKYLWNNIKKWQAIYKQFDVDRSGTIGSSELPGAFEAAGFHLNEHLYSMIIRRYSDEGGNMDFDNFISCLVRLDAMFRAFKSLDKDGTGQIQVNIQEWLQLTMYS
Assay: Measurement of inhibitory activity against m-calpain
Format: biochemical
Settings: casein substrate, pH 7.4, 30° C. for 60 minutes; read-out: Enzyme inhibitory activity m-Calpain (IC50)

| Compound | IC50 |
| --- | --- |
| COCCOCCOCCOCCOC(=O)N[C@@H](CC(C)C)C(=O)N[C@@H](Cc1ccccc1)C(=O)C(=O)NC1CC1 [Compound 19, ((1S)-1-((((1S)-1-Benzyl-2,3-dioxo-3-(cyclopropylamino)propyl)amino)carbonyl)-3-methylbutyl)carbamic acid 11-methoxy-3,6,9-trioxaundecanyl ester] | 170 nM |
| COCCOCCOCCOCCOCCOC(=O)N[C@@H](CC(C)C)C(=O)N[C@@H](Cc1ccccc1)C(=O)C(=O)NC1CC1 [Compound 20, ((1S)-1-((((1S)-1-Benzyl-2,3-dioxo-3-(cyclopropylamino)propyl)amino)carbonyl)-3-methylbutyl)carbamic acid 14-methoxy-3,6,9,12-tetraoxatetradecanyl ester] | 190 nM |

From US11844776B2, “Composition for treatment and/or prevention of peripheral nerve disorder” (OSAKA CITY UNIVERSITY, priority 2016, dated 2023)
